Data reported in patent publication US9198433B2, “Substituted benzene fungicides” (E I DU PONT DE NEMOURS AND COMPANY, priority 2007, dated 2015).
Where two headings read alike, the source gives them in different places. Marks after values point to notes of the source that are not given here.

Tests used:
Type in all cases: in vivo
Alternaria solani = experiment: Test H: tomato early blight, preventive spray on tomato seedlings, disease rating
In short: (§1)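 Disease ratings follow a preventive run-off spray of tomato seedlings. Compounds were first dissolved in acetone (3% of volume), then suspended in 50/50 acetone/water containing 250 ppm Trem 014. Test level 200 ppm (equivalent to 500 g/ha) except where marked * for 40 ppm or ** for 50 ppm.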

[1] = tested on: Erysiphe graminis f. sp. tritici; experiment: Test A: wheat powdery mildew, preventive spray on wheat seedlings, disease rating
In short: (§2)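 Applied as preventive foliar sprays to wheat seedlings, to run-off. Formulation: acetone (3% of final volume) predissolution, then acetone/water 50/50 with surfactant at 250 ppm. Rates were 200 ppm except flagged values at 40 or 50 ppm.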

Pythium aphanidermatum = experiment: Test L: bluegrass pythium blight, preventive spray on bluegrass seedlings, disease rating
From the text: The test compounds were first dissolved in acetone in an amount equal to 3% of the final volume and then suspended at the desired concentration (in ppm) in acetone and purified water (50/50 mix) containing 250 ppm of the surfactant Trem® 014 (polyhydric alcohol esters). The resulting test suspensions were then used in Tests A-L. Spraying a 200 ppm test suspension to the point of run-off on the test plants was the equivalent of an application rate of 500 g/ha. The test suspension was sprayed to the point of run-off on bluegrass seedlings. […] A dash (-) indicates no test results. All results are for 200 ppm except where followed by an “*”, which indicates 40 ppm or “**”, which indicates 50 ppm.

Septoria tritici = experiment: Test D: wheat leaf blotch, preventive spray on wheat seedlings, disease rating
In short: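 Preventive test: one day after run-off spraying (200 ppm, equal to 500 g/ha, unless marked 40 or 50 ppm; acetone/water plus 250 ppm Trem 014), seedlings received S. tritici spore inoculum. Disease scored after 48 h at 24 °C in saturated air and 19 further days at 20 °C.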

Septoria nodorum = experiment: Test C: wheat glume blotch, preventive spray on wheat seedlings, disease rating
In short: as §2

Phytophthora infestans = settings: tomato late blight
Botrytis cinerea = experiment: Test F: tomato Botrytis, preventive spray on tomato seedlings, disease rating
In short: as §1

Rhizoctonia oryzae = experiment: Test I: turf brown patch, preventive spray on creeping bent grass seedlings, disease rating
From the text: The test compounds were first dissolved in acetone in an amount equal to 3% of the final volume and then suspended at the desired concentration (in ppm) in acetone and purified water (50/50 mix) containing 250 ppm of the surfactant Trem® 014 (polyhydric alcohol esters). The resulting test suspensions were then used in Tests A-L. Spraying a 200 ppm test suspension to the point of run-off on the test plants was the equivalent of an application rate of 500 g/ha. The test suspension was sprayed to the point of run-off on creeping bent grass seedlings. […] A dash (-) indicates no test results. All results are for 200 ppm except where followed by an “*”, which indicates 40 ppm or “**”, which indicates 50 ppm.

[2] = tested on: Puccinia recondita f. sp. tritici; experiment: Test B: wheat leaf rust, preventive spray on wheat seedlings, disease rating
In short: as §2

Plasmopara viticola = experiment: Test K: grape downy mildew, spray on grape seedlings after inoculation, disease rating
From the text: The test compounds were first dissolved in acetone in an amount equal to 3% of the final volume and then suspended at the desired concentration (in ppm) in acetone and purified water (50/50 mix) containing 250 ppm of the surfactant Trem® 014 (polyhydric alcohol esters). The resulting test suspensions were then used in Tests A-L. Spraying a 200 ppm test suspension to the point of run-off on the test plants was the equivalent of an application rate of 500 g/ha. Grape seedlings were inoculated with a spore suspension of Plasmopara viticola (the causal agent of grape downy mildew) and incubated in a saturated atmosphere at 20° C. for 24 h. After a short drying period, the test suspension was sprayed to the point of run-off on the grape seedlings and then moved to a growth chamber at 20° C. for 6 days, after which the test units were placed back into a saturated atmosphere at 20° C. for 24 h. Upon removal, disease ratings were made. […] A dash (-) indicates no test results. All results are for 200 ppm except where followed by an “*”, which indicates 40 ppm or “**”, which indicates 50 ppm.

Fusarium graminearum = settings: 200 ppm; wheat head scab

Structure (SMILES) | Percentage Disease Control, Test H (Alternaria solani; 200 ppm) | Percentage Disease Control, Test A ([1]; 200 ppm) | Percentage Disease Control, Test L (Pythium aphanidermatum; 200 ppm) | Percentage Disease Control, Test C (Septoria nodorum; 200 ppm) | Percentage Disease Control, Test J (Phytophthora infestans; 200 ppm) | Percentage Disease Control, Test F (Botrytis cinerea; 200 ppm) | Percentage Disease Control, Test I (Rhizoctonia oryzae; 200 ppm) | Percentage Disease Control, Test B ([2]; 200 ppm) | Percentage Disease Control, Test K (Plasmopara viticola; 200 ppm) | Percentage Disease Control, Test E (Fusarium graminearum) | other results
COC(=O)NCc1cc(-c2ccn(CCC=C(C)C)n2)ccc1Cl [Cmpd 30] | 0% | 83% | 0% | 73% | 0% | 0% | 0% | 98% | 74% | – | Percentage Disease Control, Test D (Septoria tritici; 200 ppm): 90%
COC(=O)NCc1cc(-c2ccn(CC#N)n2)ccc1Cl [Cmpd 26] | 0% | 0% | 0% | 0% | 60% | 0% | 0% | 73% | 6% | 0% | Percentage Disease Control, Test D (Septoria tritici; 200 ppm): 26%
COC(=O)NCc1cc(-c2ccn(C(C)[Si](C)(C)C)n2)ccc1Cl (centres unmarked) [Cmpd 29] | – | – | – | – | – | – | – | – | – | – | Percentage Disease Control, Test H (Alternaria solani; 50 ppm (**)): 67** %; Percentage Disease Control, Test A ([1]; 50 ppm (**)): 78** %; Percentage Disease Control, Test L (Pythium aphanidermatum; 50 ppm (**)): 0** %; Percentage Disease Control, Test D (Septoria tritici; 50 ppm (**)): 96** %; Percentage Disease Control, Test C (Septoria nodorum; 50 ppm (**)): 82** %; Percentage Disease Control, Test J (Phytophthora infestans; 50 ppm (**)): 0** %; Percentage Disease Control, Test F (Botrytis cinerea; 50 ppm (**)): 0** %; Percentage Disease Control, Test I (Rhizoctonia oryzae; 50 ppm (**)): 0** %; Percentage Disease Control, Test B ([2]; 50 ppm (**)): 98** %; Percentage Disease Control, Test K (Plasmopara viticola; 50 ppm (**)): 27** %
COC(=O)NCc1cc(-c2cc[nH]n2)ccc1Cl [Cmpd 21] | 0% | 0% | 0% | 0% | 0% | 0% | 0% | 79% | 0% | 0% | –
COC(=O)NCc1cc(-c2ccn(CCC#N)n2)ccc1Cl [Cmpd 31] | – | – | – | – | – | – | – | – | – | – | Percentage Disease Control, Test H (Alternaria solani; 40 ppm (*)): 0* %; Percentage Disease Control, Test A ([1]; 40 ppm (*)): 0* %; Percentage Disease Control, Test L (Pythium aphanidermatum; 40 ppm (*)): 0* %; Percentage Disease Control, Test D (Septoria tritici; 40 ppm (*)): 69* %; Percentage Disease Control, Test C (Septoria nodorum; 40 ppm (*)): 0* %; Percentage Disease Control, Test J (Phytophthora infestans; 40 ppm (*)): 0* %; Percentage Disease Control, Test F (Botrytis cinerea; 40 ppm (*)): 0* %; Percentage Disease Control, Test I (Rhizoctonia oryzae; 40 ppm (*)): 0* %; Percentage Disease Control, Test B ([2]; 40 ppm (*)): 0* %; Percentage Disease Control, Test K (Plasmopara viticola; 40 ppm (*)): 20* %
C=C[Si](C)(C)CON=C(C)c1ccc(Cl)c(CNC(=O)OC)c1 [Compound 4] | – | 98% | 0% | 99% | 0% | 37% | 0% | 99% | 74% | 97% | Percentage Disease Control, Test D (Septoria tritici; 40 ppm (*)): 59* %
COC(=O)NCc1cc(-c2ccn(Cc3cccc(C)n3)n2)ccc1Cl [Cmpd 20] | 0% | 99% | 0% | 96% | 0% | 0% | 0% | 100% | 0% | 72% | –
